From ChEMBL document CHEMBL4184323, “Structure-Guided Design, Synthesis, and Characterization of Next-Generation Meprin β Inhibitors” (J Med Chem, 2018) come the findings set out here.

The target in one data set is T1, BMP1 (Homo sapiens, UniProt P13497).
T1 sequence (P13497 whole entry): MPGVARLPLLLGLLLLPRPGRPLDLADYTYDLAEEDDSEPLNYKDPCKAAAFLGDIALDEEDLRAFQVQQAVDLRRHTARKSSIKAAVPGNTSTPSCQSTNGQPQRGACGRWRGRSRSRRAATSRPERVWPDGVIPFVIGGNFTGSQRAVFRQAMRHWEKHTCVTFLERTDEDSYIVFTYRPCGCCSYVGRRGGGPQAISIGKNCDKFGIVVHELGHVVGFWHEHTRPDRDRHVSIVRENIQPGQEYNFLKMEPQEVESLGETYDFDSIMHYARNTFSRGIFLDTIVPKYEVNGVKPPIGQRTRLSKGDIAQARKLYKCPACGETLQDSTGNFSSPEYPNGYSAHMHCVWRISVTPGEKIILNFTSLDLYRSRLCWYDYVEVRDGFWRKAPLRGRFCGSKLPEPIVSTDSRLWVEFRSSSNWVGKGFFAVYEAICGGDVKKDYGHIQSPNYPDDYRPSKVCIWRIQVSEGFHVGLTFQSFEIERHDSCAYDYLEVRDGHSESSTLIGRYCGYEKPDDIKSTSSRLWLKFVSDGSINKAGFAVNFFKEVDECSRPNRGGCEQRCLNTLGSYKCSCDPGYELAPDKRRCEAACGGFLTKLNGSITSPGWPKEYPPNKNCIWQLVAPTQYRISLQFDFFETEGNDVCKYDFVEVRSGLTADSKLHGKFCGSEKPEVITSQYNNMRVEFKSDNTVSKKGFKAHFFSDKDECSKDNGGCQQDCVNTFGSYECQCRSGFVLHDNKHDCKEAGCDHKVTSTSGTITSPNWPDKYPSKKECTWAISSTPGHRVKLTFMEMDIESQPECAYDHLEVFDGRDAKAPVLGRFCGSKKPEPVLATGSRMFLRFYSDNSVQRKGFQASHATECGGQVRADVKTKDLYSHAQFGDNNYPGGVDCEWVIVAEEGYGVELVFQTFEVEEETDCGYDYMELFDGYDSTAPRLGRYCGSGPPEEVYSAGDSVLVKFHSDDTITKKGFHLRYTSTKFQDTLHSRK
In words: Inhibition of human BMP1 expressed in Escherichia coli assessed as residual activity using Abz-YVADAPK(Dnp)G-OH as substrate at 200 uM by fluorescence assay relative to control. The note with it: probe Abz-YVADAPK(Dnp)G-OH, read-out: Activity.

The nature of data set [1]: Drug absorption in Sprague-Dawley rat at 5 mg/kg, po by LC-MS analysis. It counts as ADME, organism-based. The note with it: in vivo, read-out: Fabs.
The nature of data set [2]: Tmax in Sprague-Dawley rat at 5 mg/kg, po by LC-MS analysis. It counts as ADME, organism-based. As to conditions: in vivo.
A short description of data set [3]: Tmax in Sprague-Dawley rat at 10 mg/kg, ip by LC-MS analysis. The note with it: in vivo. It counts as ADME, organism-based.
For another data set, the target named is CYP2C9 (Homo sapiens, UniProt P11712). In words: Inhibition of recombinant human CYP2C9 expressed in baculosomes assessed as residual activity at 25 uM using BOMCC substrate by fluorescence assay relative to control. It counts as ADME. As to conditions: probe BOMCC, read-out: Activity.
Sequence of CYP2C9 (P11712 whole entry): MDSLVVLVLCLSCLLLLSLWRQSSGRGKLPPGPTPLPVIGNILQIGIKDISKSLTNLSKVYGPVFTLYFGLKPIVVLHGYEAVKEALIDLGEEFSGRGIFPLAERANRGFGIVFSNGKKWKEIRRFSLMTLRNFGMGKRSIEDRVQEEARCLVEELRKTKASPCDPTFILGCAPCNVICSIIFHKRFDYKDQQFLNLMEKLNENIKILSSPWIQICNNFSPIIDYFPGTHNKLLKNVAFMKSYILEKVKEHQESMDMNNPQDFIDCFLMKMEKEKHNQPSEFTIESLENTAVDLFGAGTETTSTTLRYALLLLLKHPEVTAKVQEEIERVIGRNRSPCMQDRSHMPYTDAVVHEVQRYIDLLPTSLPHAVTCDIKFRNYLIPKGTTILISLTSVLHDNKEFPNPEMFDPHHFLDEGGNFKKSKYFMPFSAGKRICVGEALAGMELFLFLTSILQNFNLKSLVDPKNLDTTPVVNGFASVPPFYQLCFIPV

With `O=C(CN(Cc1cccc(C(=O)O)c1)Cc1cccc(C(=O)O)c1)NO`, the activity at 200 µM at BMP1 stood at 87%. Further, in data set [1], the Fa turned out to be 13%. The Tmax (as a rule, the time from dosing to the highest level) is 10.2 min in data set [2] and 7.2 min in data set [3]. On CYP2C9, the activity at 25 µM was determined as 101%.
